pIC50: −log10 of the molar value. The source made the active and inactive calls. The rule behind the calls is not given here.
How the values were obtained:
[1] = Clearance in rat at 60 mg/kg, po by LC-MS/MS analysis; assay type: ADME, organism-based; settings: in vivo
[2] = AUC (0 to infinity) in rat at 60 mg/kg, po by LC-MS/MS analysis; assay type: ADME, organism-based; set-up: time infinity, dose 60 mg/kg, route po; settings: in vivo
[3] = Tmax in rat at 60 mg/kg, po by LC-MS/MS analysis; assay type: ADME, organism-based; settings: in vivo
[4] = Cmax in rat at 60 mg/kg, po by LC-MS/MS analysis; assay type: ADME, organism-based; set-up: dose 60 mg/kg, route po; settings: in vivo
[5] = Half life in rat at 60 mg/kg, po by LC-MS/MS analysis; assay type: ADME, organism-based; settings: in vivo
[6] = AUC (0 to t) in rat at 60 mg/kg, po by LC-MS/MS analysis; assay type: ADME, organism-based; set-up: dose 60 mg/kg, route po; settings: in vivo
[7] = In vivo inhibition of ATX in lung homogenate of BLM induced C57BL/6J mouse lung fibrosis model assessed as reduction in ATX activity using FS-3 as substrate at 60 mg/kg, ip by fluorescence based microplate reader analysis (reference value: 7.78%); assay type: functional
[8] = Downregulation of IL-6 expression in lung tissue of BLM induced C57BL/6J mouse lung fibrosis model assessed as fold reduction in IL-6 expression level at 30 to 60 mg/kg, ip by qRT-PCR analysis; assay type: functional; settings: dose 30-60 mg/kg
[9] = In vivo inhibition of ATX in lung homogenate of BLM induced C57BL/6J mouse lung fibrosis model assessed as reduction in ATX activity using FS-3 as substrate at 30 mg/kg, ip by fluorescence based microplate reader analysis (reference value: 7.78%); assay type: functional
Mus musculus [10] = assay: (§1) Antifibrotic activity against BLM induced C57BL/6J mouse lung fibrosis model assessed as improvement in lung architecture by measuring appearance of conterminous fibrotic walls at 30 to 60 mg/kg, ip pretreated with compound administered once daily for 3 days followed by BLM treatment and measured after 28 days by hematoxylin and eosin staining based microscopic analysis; assay type: functional, organism-based; settings: dose 30-60 mg/kg, time 31.0 day
Mus musculus [11] = assay: as §1, with “of” for “of conterminous”, “lesions” for “walls”, “Masson” for “hematoxylin and eosin”; assay type: functional, organism-based; settings: dose 30-60 mg/kg, time 31.0 day
Mus musculus [12] = assay: as §1, with “Masson” for “hematoxylin and eosin”; assay type: functional, organism-based; settings: dose 30-60 mg/kg, time 31.0 day
[13] = Downregulation of TGF-beta expression in lung tissue of BLM induced C57BL/6J mouse lung fibrosis model assessed as fold reduction in TGF-beta expression level at 30 to 60 mg/kg, ip by qRT-PCR analysis; assay type: functional; settings: dose 30-60 mg/kg
[14] = Downregulation of TNF-alpha expression in lung tissue of BLM induced C57BL/6J mouse lung fibrosis model assessed as fold reduction in TNF-alpha expression level at 30 to 60 mg/kg, ip by qRT-PCR analysis; assay type: functional; settings: dose 30-60 mg/kg
[15] = In vivo inhibition of ATX in BALF of BLM induced C57BL/6J mouse lung fibrosis model assessed as reduction in ATX activity using FS-3 as substrate at 30 to 60 mg/kg, ip by fluorescence based microplate reader analysis (reference value: 4.50%); assay type: functional, Bronchoalveolar lavage; settings: dose 30-60 mg/kg
Mus musculus [16] = assay: as §1, with “of” for “of conterminous”, “lesions” for “walls”; assay type: functional, organism-based; settings: dose 30-60 mg/kg, time 31.0 day
Autotaxin = Autotaxin (Homo sapiens, UniProt Q13822); assay: Inhibition of human ATX using FS-3 as substrate preincubated for 45 mins followed by substrate addition measured every 1 min for 30 mins by fluorescence based microplate reader analysis
[17] = Cytotoxicity against human HBE cells assessed as lethal dose; assay type: toxicity, cell-based; settings: HBE cells (epithelial cell line), read-out: LD50 (the source's name)
Mus musculus [18] = assay: Antifibrotic activity against BLM induced C57BL/6J mouse lung fibrosis model assessed as recovery of body weight at 30 to 60 mg/kg, ip pretreated with compound administered once daily for 3 days followed by BLM treatment and measured after 28 days; assay type: functional, organism-based; settings: dose 30-60 mg/kg, time 31.0 day
[19] = Downregulation of IL-6 expression in lung tissue of BLM induced C57BL/6J mouse lung fibrosis model assessed as fold reduction in IL-6 expression level at 60 mg/kg, ip by qRT-PCR analysis; assay type: functional
Mus musculus [20] = assay: Antifibrotic activity against BLM induced C57BL/6J mouse lung fibrosis model assessed as recovery of body weight at 60 mg/kg, ip pretreated with compound administered once daily for 3 days followed by BLM treatment and measured after 28 days; assay type: functional, organism-based; settings: time 31.0 day
Mus musculus [21] = assay: as §1, with “of” for “of conterminous”, “lesions” for “walls”, “at” for “at 30 to”; assay type: functional, organism-based; settings: time 31.0 day
Mus musculus [22] = assay: as §1, with “at” for “at 30 to”, “Masson” for “hematoxylin and eosin”; assay type: functional, organism-based; settings: time 31.0 day
Mus musculus [23] = assay: as §1, with “of” for “of conterminous”, “lesions” for “walls”, “at” for “at 30 to”, “Masson” for “hematoxylin and eosin”; assay type: functional, organism-based; settings: time 31.0 day
Mus musculus [24] = assay: as §1, with “at” for “at 30 to”; assay type: functional, organism-based; settings: time 31.0 day
[25] = Downregulation of TNF-alpha expression in lung tissue of BLM induced C57BL/6J mouse lung fibrosis model assessed as fold reduction in TNF-alpha expression level at 60 mg/kg, ip by qRT-PCR analysis; assay type: functional
[26] = Downregulation of TGF-beta expression in lung tissue of BLM induced C57BL/6J mouse lung fibrosis model assessed as fold reduction in TGF-beta expression level at 60 mg/kg, ip by qRT-PCR analysis; assay type: functional

Q: What does the source list for `CCn1cc(NC(=O)OCc2cc(Cl)cc(Cl)c2)c2cc(-c3nc(CN4CCOCC4)cs3)ccc21`?
A: CL/F [1]: 6.35 mL/min/kg; AUC [2]: 240 ng·h/mL; Tmax [3]: 2.67 h; Cmax ([4]; read-out: Cmax): 50 ng/mL; half-life [5]: 2.56 h; AUCt [6]: 240 ng·h/mL

Q: With `CCn1cc(NC(=O)NCc2ccc(OC)c(Cl)c2)c2cc(-c3nc(CN(CCO)CCO)cs3)ccc21` as the molecule, how does the inhibition in vivo at 60 mg/kg [7] read?
A: The inhibition in vivo at 60 mg/kg was 5.03%.

Q: And the “fold change (FC)” value [8]?
A: Its value is 2.

Q: And the inhibition in vivo at 30 mg/kg [9]?
A: The inhibition in vivo at 30 mg/kg was 5.59%.

Q: And the Activity (Mus musculus [10])?
A: Its Activity is “Active”.

Q: And the Activity (Mus musculus [11])?
A: The Activity was “Active”.

Q: What about the Activity (Mus musculus [12]) of the same molecule?
A: Its Activity is “Active”.

Q: What about the AUC [2] of the same molecule?
A: The AUC was 680 ng·h/mL.

Q: What about the “fold change (FC)” value [13] of the same molecule?
A: Its value is 2.

Q: And the “fold change (FC)” value [14]?
A: Its value is 2.

Q: What about the Tmax [3] of the same molecule?
A: The Tmax was 3.91 h.

Q: What about the Cmax [4] of the same molecule?
A: The Cmax was 131 ng/mL.

Q: And the “inhibition (INH)” value [15]?
A: The value was 3.23%.

Q: What about the Activity (Mus musculus [16]) of the same molecule?
A: The Activity was “Active”.

Q: What about the pIC50 (Autotaxin) of the same molecule?
A: The pIC50 was 8.66.

Q: And the half-life [5]?
A: Its half-life is 3.11 h.

Q: What about the CC50 [17] of the same molecule?
A: Its CC50 is over 20000 nM.

Q: What about the AUC(0-t) [6] of the same molecule?
A: Its AUC(0-t) is 670 ng·h/mL.

Q: And the Activity (Mus musculus [18])?
A: The Activity was “Active”.

Q: With `CCn1cc(NC(=O)NCc2ccc(Cl)cc2)c2cc(-c3nc(CN(CCO)CCO)cs3)ccc21` as the molecule, how does the pIC50 (Autotaxin) read?
A: The pIC50 was 7.52.

Q: With `CCc1nc2c(C)cc(N3CCN(CC(=O)N4CC(O)C4)CC3)cn2c1N(C)c1nc(-c2ccc(F)cc2)c(C#N)s1` [ZIRITAXESTAT] as the molecule, how does the inhibition in vivo at 60 mg/kg [7] read?
A: The inhibition in vivo at 60 mg/kg was 5.54%.

Q: What about the “fold change (FC)” value [19] of the same molecule?
A: The value was 2.

Q: And the Activity (Mus musculus [20])?
A: Its Activity is “Active”.

Q: And the Activity (Mus musculus [21])?
A: The Activity was “Active”.

Q: And the Activity (Mus musculus [22])?
A: Its Activity is “Active”.

Q: And the Activity (Mus musculus [23])?
A: Its Activity is “Active”.

Q: And the Activity (Mus musculus [24])?
A: Its Activity is “Active”.

Q: What about the “fold change (FC)” value [25] of the same molecule?
A: Its value is 2.

Q: And the “fold change (FC)” value [26]?
A: The value was 2.
